Experiments:
Wiga rats = test: Reserpine interaction test in rats; assay type: in vivo, rat; conditions: for ED50: Rattus norvegicus, po, Time 60, reserpine 10 mg/kg SC, Wiga rats, read-out: ED50, reversal of reserpine-induced ptosis
Description: 4) Reserpine Interaction Test in Rats
It was investigated to what extent the mydriatic action of test compounds was sufficient to counteract the miosis induced by the monoamines-depleting agent reserpine (10 mg/kg; SC) in Wiga rats.
The effects are illustrated in FIG. 3. […] The reference mGlu2 NAMs RO-4995819 (40 mg/kg, p.o.), RO-4491533 (40 mg/kg, p.o.; 10 mg/kg, s.c.) and [CAS 579473-69-1]

human mGlu2 receptor = target: T1, human mGlu2 receptor (Homo sapiens, UniProt Q14416); test: [35S]GTPγS binding assay (mGluR2 negative allosteric modulation); assay type: biochemical; conditions: for IC50: read-out: GTPγS - hmGluR2 anGT pIC50 (converted); for Emax: relative maximal effect: maximal % inhibition relative to the control glutamate response, read-out: GTPγS - hmGluR2 anGT Emax
T1 construct: expressed in transfected cells; host or cells: CHO cells (membrane preparation)
How it was run: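 Negative allosteric modulation read as [35S]GTPγS (0.1 nM) incorporation over 30 min at 30 °C, expressed as % of the response to an EC80-equivalent glutamate concentration. Assay used 7 μg human mGlu2 CHO membrane protein in HEPES pH 7.4 buffer with NaCl, MgCl2, GDP and saponin; bound label collected by filtration.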

Male Wiga Wistar rats = test: Reversal of LY-404039-induced decrease of palpebral opening in apomorphine-challenged rats; assay type: in vivo; conditions: Rattus norvegicus, reversal of LY-404039-induced decrease of palpebral opening (cumulative score >26) in apomorphine challenged rats
Description: 6) Reversal of LY-404039-Induced Decrease of Palpebral Opening in Apomorphine-Challenged Rats.
Male Wiga Wistar rats (Crl:WI; Charles River Germany; 220±40 g) were housed under standard laboratory conditions (21±2° C.; 50-65% relative humidity; light-dark cycle set at 12 h; lights on at 6.00 h) and fasted overnight prior to the start of the experiments (tap water remained available ad libitum). During the test period, they were housed in individual cages. The local Ethical Committee approved all studies in compliance with the Declaration of Helsinki. Palpebral opening was scored every 5 min over the first hour after injection of apomorphine (1.0 mg/kg, i.v.) in animals either pretreated or not pretreated with LY-404039 (2.5 mg/kg, s.c.) at 1 h prior to the apomorphine injection. The animals were also pretreated with test compound or solvent at a predefined interval before apomorphine challenge. The score system was: (5) exophthalmos, (4) wide open, (3) open for three-quarters, (2) half open, (1) open for one-quarter, (0) closed. The scores for palpebral opening were cumulated over the 60-min observation period. A cumulative palpebral opening score >26 was selected for drug-induced reversal of the LY-404039-induced decrease of palpebral opening (occurrence in 3.2% of control animals pretreated with LY-404039 (n=154) versus in 99.5% of control rats not pretreated with LY-404039 (n=6335)).
In animals receiving apomorphine alone the median palpebral opening is 43 whereas in animals receiving apomorphine and LY-404039, the median palpebral opening is 17.

rats = test: Reversal of the effect of the mGluR2 PAM JNJ-42153605 on scopolamine-induced hyperlocomotion; assay type: in vivo; conditions: Rattus norvegicus, 1 h, Route PO, test compound 60 min before recording, criterion total distance >1500 cm
Description: 2) Reversal of the Effect of the mGluR2 PAM JNJ-42153605 on Scopolamine-Induced Hyperlocomotion Apparatus
Motor activity was measured in microprocessor-based motor activity arenas (closed gray PVC cylinders with a height of 39 cm and a diameter of 31 cm). Each arena was placed on an infrared LED (8×8 LEDs) lit box (white PVC squared box; 40×40 cm^2; height 12.5 cm. An infrared-sensitive tube camera and a white light source were mounted to the ceiling above the observation chamber to track the animal. The total distance traveled (cm) was recorded and analyzed using the Noldus Ethovision XT Video Tracking System (Version 7.0.418; Noldus, Wageningen, The Netherlands). The intensity of the light within the activity cages (measured in the centre at the level of the floor) ranged between 4 and 8 LUX.
The rats were pretreated with test compound or vehicle at 60 min before the start of the activity recordings and placed into individual cages. The rats were challenged with JNJ-42153605 (3-(cyclopropylmethyl)-7-(4-phenylpiperidin-1-yl)-8-(trifluoromethyl)[1,2,4]triazolo[4,3-a]pyridine; WO2010/130424; Cid et al. J. Med. Chem. 2012, 55, 8770-8789) (20 mg/kg, i.v.) 30 min before the start of the activity recording combined with scopolamine (0.16 mg/kg, i.v.) just before the start of the activity measurements Immediately after the injection of scopolamine, the rats were placed into the activity monitors and total distance travelled over the first 30 min was measured.
Animals receiving the combination of JNJ-42153605 and scopolamine (n=433) almost always travelled a distance of less than 1500 cm (<1500 cm) (only 2.5% of the control rats travelled a distance of more than 1500 cm (>1500 cm)). On the other hand, animals challenged with scopolamine alone (n=215) always travelled a total distance of more than 1500 cm (>1500 cm) and almost always (in 95.8% of the rats) a distance of more than 4400 cm (>4400 cm). […] For reversal of the inhibitory effect of JNJ-42153605 on the scopolamine-induced hyperlocomotion, two all-or-none criteria were adopted: (1) reversal: total distance >1500 cm; (2) normalization: total distance >4400 cm.

[1] = membranes from CHO cells transfected with human mGlu2 receptor, glutamate 60 μM, pIC50 = −log IC50 (M)

T1 sequence (Q14416 19-872): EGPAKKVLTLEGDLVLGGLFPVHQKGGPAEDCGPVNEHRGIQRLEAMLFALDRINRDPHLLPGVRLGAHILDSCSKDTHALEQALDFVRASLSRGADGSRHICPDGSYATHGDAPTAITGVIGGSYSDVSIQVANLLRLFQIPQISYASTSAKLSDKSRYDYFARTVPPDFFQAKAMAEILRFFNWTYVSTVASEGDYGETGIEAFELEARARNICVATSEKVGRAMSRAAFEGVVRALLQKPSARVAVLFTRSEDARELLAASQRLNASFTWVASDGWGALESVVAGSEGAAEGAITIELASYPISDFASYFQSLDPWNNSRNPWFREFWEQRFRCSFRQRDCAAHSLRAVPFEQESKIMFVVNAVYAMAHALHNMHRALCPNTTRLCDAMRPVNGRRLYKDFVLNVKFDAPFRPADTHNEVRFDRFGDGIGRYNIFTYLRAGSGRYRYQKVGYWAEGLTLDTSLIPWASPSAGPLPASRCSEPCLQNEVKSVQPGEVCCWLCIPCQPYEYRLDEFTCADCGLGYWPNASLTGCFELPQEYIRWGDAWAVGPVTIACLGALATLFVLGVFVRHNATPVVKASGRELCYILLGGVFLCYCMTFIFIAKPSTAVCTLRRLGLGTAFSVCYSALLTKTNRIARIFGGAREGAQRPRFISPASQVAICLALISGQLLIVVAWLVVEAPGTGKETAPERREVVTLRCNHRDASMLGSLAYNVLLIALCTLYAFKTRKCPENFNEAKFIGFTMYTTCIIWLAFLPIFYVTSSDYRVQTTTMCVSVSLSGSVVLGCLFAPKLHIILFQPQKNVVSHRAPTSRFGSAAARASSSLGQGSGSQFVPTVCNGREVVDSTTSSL

Row | Structure (SMILES) | ED50 (Wiga rats) [mg/kg] | IC50 (human mGlu2 receptor; [1]) [M] | Emax (human mGlu2 receptor) [%] | melting point | ED50 (rats) [mg/kg] | other results
1 | Cc1cc(-c2cnn3c2C(=O)N(c2ccc(C#N)cc2)C[C@@H]3C)ccn1 [compound 80] | > 2.5 | – | – | – | – | –
2 | Cc1ccc(N2C[C@H](C)n3ncc(-c4ccnc(C)c4)c3C2=O)cc1 [compound 78] | ≥ 10 | – | – | – | – | –
3 | Cc1cncc(-c2cnn3c2C(=O)N(c2ccc(C(F)(F)F)cc2)C[C@@H]3C)c1 [compound 24] | ≥ 10 | – | – | – | – | –
4 | Cc1cc(-c2cnn3c2C(=O)N(c2ccc(C(F)(F)F)cc2)CC3)ccn1 [compound 40] | 0.32 | 1.48e-06 | 105 | 137 °C | – | –
5 | Cc1cc(-c2cccc(C3=Nc4cc(C)c(C(F)(F)F)cc4NC(=O)C3)c2)cc(C)n1 [RO-4491533, reference compound] | – | – | – | – | – | interactions with reserpine (mydriasis, reversal of ptosis, miosis, sedation) (Wiga rats; 10 mg/kg, s.c.): devoid of these interactions with reserpine; interactions with reserpine (mydriasis, reversal of ptosis, miosis, sedation) (Wiga rats; 40 mg/kg, p.o.): devoid of these interactions with reserpine
6 | COc1ccc(N2C[C@H](C)n3ncc(-c4ccnc(C)c4)c3C2=O)cc1F [compound 35] | > 10 | 6.03e-07 | 100 | – | – | –
7 | Cc1cc(-c2cnn3c2C(=O)N(c2ccc(Cl)cc2C)C[C@@H]3C)ccn1 [compound 172] | – | 1.05e-06 | 105 | – | – | ED50 (Male Wiga Wistar rats; Route SC): > 40 mg/kg
8 | Cc1cc(-c2cnn3c2C(=O)N(c2cccc(OC(C)C)c2)C[C@@H]3C)ccn1 [compound 79] | 5 | 5.13e-07 | 104 | – | – | –
9 | COc1ccc(N2C[C@H](C)n3ncc(-c4ccnc(C)c4)c3C2=O)cc1 [compound 38] | 5 | 9.55e-07 | 103 | – | – | –
10 | CCOc1nc(N2C[C@H](C)n3ncc(-c4ccnc(C)c4)c3C2=O)ccc1C(F)(F)F (single isomer, unassigned) [compound 200] | 0.13 | 5.89e-09 | 105 | 122.3 °C | 3.15 | –
11 | Cc1cc(-c2cnn3c2C(=O)N(c2ccc(Cl)cc2Cl)C[C@@H]3C)ccn1 [compound 167] | – | 7.59e-07 | 105 | – | – | ED50 (Male Wiga Wistar rats; Route PO): > 40 mg/kg
12 | CCOc1ccc(N2C[C@H](C)n3ncc(-c4ccnc(C)c4)c3C2=O)cc1.Cl [compound 81, (7S)-5-(4-Ethoxyphenyl)-7-methyl-3-(2-methyl-4-pyridyl)-6,7-dihydropyrazolo[1,5-a]pyrazin-4-one hydrochloride salt] | 5 | 5.37e-07 | 103 | – | – | –
13 | Cc1cc(-c2cnn3c2C(=O)N(c2ccc(S(F)(F)(F)(F)F)cc2)C[C@@H]3C)ccn1 [compound 4] | – | 3.31e-09 | 104 | 247 °C | 1.26 | –
14 | CNc1cc(-c2cnn3c2C(=O)N(c2ccc(C(F)(F)F)c(Cl)c2)C[C@@H]3C)cc(C#N)n1 [compound 95] | – | 1.78e-09 | 110 | 210.61 °C (dec.) | > 2.5 | –
15 | COc1cc(N2C[C@H](C)n3ncc(-c4ccnc(C)c4)c3C2=O)ccc1Cl [compound 19] | – | 6.92e-08 | 105 | 137 °C | ≥ 10 | –
16 | Cc1cc(-c2cnn3c2C(=O)N(c2cccc(C(C)O)c2)C[C@@H]3C)ccn1 (some centres unmarked) [compound 148] | 1.99 | 5.62e-06 | 100 | 149.7 °C | – | –
17 | Cc1cc(-c2cnn3c2C(=O)N(c2cc(F)cc(F)c2)C[C@@H]3C)ccn1 [compound 82] | 5 | 6.31e-07 | 101 | – | – | –
18 | Cc1cc(-c2cnn3c2C(=O)N(c2ccc(Cl)c(C(F)(F)F)c2)C[C@@H]3C)ccn1 [compound 9] | – | 1.05e-08 | 103 | 143.6 °C | ≥ 2.5 | –
19 | CCOc1cccc(N2C[C@H](C)n3ncc(-c4ccnc(C)c4)c3C2=O)c1 [compound 83] | 5 | 7.94e-07 | 104 | – | – | –
20 | CCOc1nc(N2C[C@H](C)n3ncc(-c4ccnc(C)c4)c3C2=O)ccc1Cl [compound 201] | – | 8.32e-09 | 105 | 119.7 °C | > 2.5 | –
21 | CNc1cc(-c2cnn3c2C(=O)N(c2ccc(C(F)(F)F)c(OC)n2)C[C@@H]3C)ccn1 [compound 237] | – | 3.16e-09 | 111 | 125.82 °C (dec.) | 1.99 | –
22 | C[C@H]1CN(c2ccc(C(F)(F)F)c(Cl)c2)C(=O)c2c(-c3ccnc(C#N)c3)cnn21 [compound 100] | – | – | 109 | 144.9 °C | > 10 | GTPγS - hmGluR2 anGT pIC50 (human mGlu2 receptor; [1]): 8.16
23 | Cc1ccc(-c2cnn3c2C(=O)N(c2ccc(C(F)(F)F)cc2)C[C@@H]3C)cn1 [compound 36] | 5 | 8.32e-07 | 100 | 128.2 °C | – | –
24 | COCc1cc(-c2cnn3c2C(=O)N(c2ccc(C(F)(F)F)cc2)C[C@@H]3C)ccn1 [compound 22] | 0.13 | 6.92e-08 | 104 | – | – | –
25 | COc1ccc(N2C[C@H](C)n3ncc(-c4ccnc(C)c4)c3C2=O)cc1OC [compound 41] | 3.15 | 3.55e-06 | 95 | 166.9 °C | – | –
26 | C[C@H]1CN(c2ccc(C(F)(F)F)cc2)C(=O)c2c(-c3ccnc(C(F)(F)F)c3)cnn21 [compound 99] | – | 1.45e-08 | 108 | 126.4 °C | ≥ 2.5 | –
27 | Cc1cc(-c2cnn3c2C(=O)N(c2ccc(OC(F)(F)F)cc2)C[C@@H]3C)ccn1 [compound 152] | – | 1e-08 | 105 | 105.4 °C | 1.99 | –
28 | Nc1ccc(C#Cc2cnn3c(C(F)(F)F)cc(-c4ccc(C(F)(F)F)cc4)nc23)cn1 [RO-4995819, reference compound] | – | – | – | – | – | interactions with reserpine (mydriasis, reversal of ptosis, miosis, sedation) (Wiga rats; 40 mg/kg, p.o.): devoid of these interactions with reserpine
29 | COc1c(C)cc(N2C[C@H](C)n3ncc(-c4ccnc(C)c4)c3C2=O)cc1C [compound 34] | 0.8 | 5.62e-07 | 100 | > 300 °C | – | –
30 | C[C@H]1CN(c2ccc(C(F)(F)F)cc2)C(=O)c2c(-c3ccnc(N4CCC4)c3)cnn21 [compound 102] | – | 8.32e-09 | 107 | 129.8 °C | ≥ 2.5 | –
